System: HEK293 cell lysates after 5 minutes serum stimulation
Experiment: Tagged substrates array: in vitro protein kinase reaction of the tagged peptide mix with cell lysate, sorted on tag array, anti-pTyr immunostaining
Type: biochemical
Settings: Hundred micrograms of total cell lysate, 30 minutes at 37 degree Celsius; anti-pTyr monoclonal antibody mix, Cy5 secondary, GenePix scanner
Method: EDC/NHS combined cross-linking was performed to tag the peptide or substrate which needs to be sorted. Coupling buffer contains no Tris and no phosphate. Peptides and oligonucleotides in equimolar ratios [50 μg/ml in 10 mM sodium acetate buffer (pH 5.0)] were reacted with a 1:1 mixture of N-hydroxysuccinimide NHS and 1 -ethyl-3 -(3 -dimethylaminopropyl) carbodiimide EDC for 2 hours. The excess active groups were then blocked with 1 M ethanolamine (pH 8.5).
Peptides. Phosphotyrosine-containing and non-phosphorylated peptides were synthesized, HPLC purified and checked by mass spectroscopy. Peptides were stored under nitrogen at -80 degree. Celsius. The synthesized peptides were as following, phosphotyrosine, AEPDpYGALYE PLCgamma, SAAPpYLKTK Stat3-705, DDPSpYVNVQ SHC-317, PDHQpYYNDF SHC-239, TDDGpYMPMS IRS 1-608, GNGDpYMPMS IRS 1-628, SPGEpYVNIE IRS 1-895, KSLNpYIDLD IRS 1-1172, DLSTpYASIN IRS1-1222; non-phosphorylated, AEPDYGALYE, SAAPYLKTK, DDPSYVNVQ and PDHQYYNDF SHC, KDGATMKTF Akt, RGRSRSAPPN BAD, GEGTYGVVYK p34cdc2, GAGTPAATDEK, DGFVLTRLLE beta spectrin, NSIMKCDIDI Gamma actin, PGIADRMQKE beta actin.
Amino modified oligonucleotides used as tags. The amino modifications can be used either for slides coupling or for peptide coupling, or for coupling to any reactive substrates which needs to be sorted onto the array. Oligonucleotides are chosen with similar Tm and hybridization properties. Oligonucleotides can be substituted by any pair of complementary nucleic acids or PNAs without affecting the sensitivity or completeness of the assay. The length and sequence of the nucleic acids or PNAs is also not important as long as strands complementarity results in hibridization specificity. Here it is described a test experiment with 18 pairs of oligonucleotides. […]
Slide Overlay. […] After triple washing in TBST, and then TBS, fluorescent complexes are detected by using a GenePix microarrays scanner. […]

Row | Sequence | phosphorylation of sorted tagged substrate (FIG. 10)
1 | AEPDYGALYE [Substrate S1] | moderately well phosphorylated
2 | SAAPYLKTK [Substrate S2] | moderately well phosphorylated
3 | PDHQYYNDF [Substrate S4] | strongly phosphorylated

From patent US20010031469A1, “Methods for the detection of modified peptides, proteins and other molecules” (priority 2000, published 2001)
